Test results: patent US8324258B2, “F1F0-ATPase inhibitors and related methods” (The Regents of the University of Michigan, priority 2007, dated 2012)

What was measured:
Ramos cells = assay: Cytotoxicity (cell death) in Ramos cells; format: cell-based
Description: (§1) The compounds listed in Table 9 were tested for activity against F1F0-ATPase by measuring ATP synthesis and ATP hydrolysis. In addition, the compounds were assessed for cytotoxicity in Ramos cells Inhibition of ATP synthesis and hydrolysis by the F1F0-ATPase and cytotoxicity in Ramos cells was measured as described in K. M. Johnson et al. Chemistry & Biology 2005, 12, 485-496.

F1F0-ATPase [1] = molecular target: T1, F1F0-ATPase (Bos taurus, UniProt P13621); assay: Inhibition of ATP synthesis by the F1F0-ATPase; format: biochemical; settings: for ATP Synthesis (IC40 μM): IC40: concentration for 40% inhibition
Description: as §1

F1F0-ATPase [2] = molecular target: T1, F1F0-ATPase; assay: Inhibition of ATP hydrolysis by the F1F0-ATPase; format: biochemical; settings: for ATP Hydrolysis (IC40 μM): IC40: concentration for 40% inhibition
Description: as §1

| SMILES | EC50 (Ramos cells; Ramos cells) | ATP Synthesis (IC40 μM) (F1F0-ATPase [1]) | ATP Hydrolysis (IC40 μM) (F1F0-ATPase [2]) | Ramos cell death (relative to Bz-423) (Ramos cells; Ramos cells, multiple of Bz-423) | syn (relative to Bz-423) (F1F0-ATPase [1]; ATP synthesis, multiple of Bz-423) | hydro (relative to Bz-423) (F1F0-ATPase [2]; ATP hydrolysis, multiple of Bz-423) | EC50 (Ramos cells; Homo sapiens, Ramos) |
| --- | --- | --- | --- | --- | --- | --- | --- |
| O=C(N=C(NCCc1c[nH]cn1)Nc1cccc2ccccc12)c1cccc(Cl)c1 [III-27, (Z/E)-N-((2-(1H-imidazol-4-yl)ethylamino)(naphthalen-1-ylamino)methylene)-3-chlorobenzamide] | > 10 µM | <10 µM | >10 µM | – | – | – | – |
| O=C(N=C(NCCc1c[nH]cn1)Nc1ccc(-c2ccc(Cl)cc2)cc1)c1cccc(Cl)c1 [III-29, (Z/E)-N-((2-(1H-imidazol-4-yl)ethylamino)(4′-chlorobiphenyl-4-ylamino)methylene)-3-chlorobenzamide] | < 10 µM | >10 µM | >10 µM | – | – | – | – |
| Cc1cccc(-c2ccc(NC(=NC(=O)c3cccc(Cl)c3)NCCc3c[nH]cn3)cc2)c1 [III-31, (Z/E)-N-((2-(1H-imidazol-4-yl)ethylamino)(3′-methylbiphenyl-4-ylamino)methylene)-3-chlorobenzamide] | < 10 µM | >10 µM | >10 µM | – | – | – | – |
| COc1cccc(-c2ccc(NC(=NC(=O)c3cccc(Cl)c3)NCCc3c[nH]cn3)cc2)c1 [III-34, (Z/E)-N-((2-(1H-imidazol-4-yl)ethylamino)(3′-methoxybiphenyl-4-ylamino)methylene)-3-chlorobenzamide] | < 10 µM | <10 µM | >10 µM | – | – | – | – |
| COc1ccc(-c2ccc(NC(=NC(=O)c3cccc(Cl)c3)NCCc3c[nH]cn3)cc2)cc1 [III-35, (Z/E)-N-((2-(1H-imidazol-4-yl)ethylamino)(4′-methoxybiphenyl-4-ylamino)methylene)-3-chlorobenzamide] | < 10 µM | <10 µM | >10 µM | – | – | – | – |
| CS(=O)(=O)c1cccc(NC(=NC(=O)c2cccc(Cl)c2)NCCc2cnc[nH]2)c1 [III-37, (Z/E)-N-((2-(1H-imidazol-5-yl)ethylamino)(3-(methylsulfonyl)phenylamino)methylene)-3-chlorobenzamide] | > 30 µM | >20 µM | >30 µM | – | – | – | – |
| CS(=O)(=O)c1ccccc1NC(=NC(=O)c1cccc(Cl)c1)NCCc1cnc[nH]1 [III-38, (Z/E)-N-((2-(1H-imidazol-5-yl)ethylamino)(2-(methylsulfonyl)phenylamino)methylene)-3-chlorobenzamide] | > 30 µM | >20 µM | >30 µM | – | – | – | – |
| CN(C)S(=O)(=O)c1ccc(NC(=NC(=O)c2cccc(Cl)c2)NCCc2cnc[nH]2)cc1 [III-39, (Z/E)-N-((2-(1H-imidazol-5-yl)ethylamino)(4-(N,N-dimethylsulfamoyl)phenylamino)methylene)-3-chlorobenzamide] | > 30 µM | >20 µM | >30 µM | – | – | – | – |
| CN(C)S(=O)(=O)c1cccc(NC(=NC(=O)c2cccc(Cl)c2)NCCc2cnc[nH]2)c1 [III-40, (Z/E)-N-((2-(1H-imidazol-5-yl)ethylamino)(3-(N,N-dimethylsulfamoyl)phenylamino)methylene)-3-chlorobenzamide] | > 30 µM | >20 µM | >30 µM | – | – | – | – |
| CCc1ccccc1NC(=NC(=O)c1cccc(Cl)c1)NCCc1c[nH]cn1 [III-41] | > 30 µM | >10 µM | >10 µM | – | – | – | – |
| CCc1cccc(NC(=NC(=O)c2cccc(Cl)c2)NCCc2c[nH]cn2)c1 [III-42] | > 20 µM | <10 µM | >20 µM | – | – | – | – |
| CCc1ccc(NC(=NC(=O)c2cccc(Cl)c2)NCCc2c[nH]cn2)cc1 [III-43, (Z/E)-N-((2-(1H-imidazol-4-yl)ethylamino)(4-ethylphenylamino)methylene)-3-chlorobenzamide] | > 10 µM | >10 µM | >20 µM | – | – | – | – |
| CCc1cccc(CC)c1NC(=NC(=O)c1cccc(Cl)c1)NCCc1c[nH]cn1 [III-44, (Z/E)-N-((2-(1H-imidazol-4-yl)ethylamino)(2,6-diethylphenylamino)methylene)-3-chlorobenzamide] | – | – | – | 2.5 ×Bz-423 | 0.7 ×Bz-423 | 0.8 ×Bz-423 | – |
| N#Cc1cccc(-c2ccc(NC(=NC(=O)c3cccc(Cl)c3)NCCc3c[nH]cn3)cc2)c1 [III-45, (Z/E)-N-((2-(1H-imidazol-4-yl)ethylamino)(3′-cyanobiphenyl-4-ylamino)methylene)-3-chlorobenzamide] | < 10 µM | <10 µM | >30 µM | – | – | – | – |
| O=C(/N=C(\Nc1ccc(-c2ccccc2)cc1)Nc1cccc2[nH]ccc12)c1cccc(Cl)c1 [IV-1, (Z/E)-N-((1H-indol-4-ylamino)(biphenyl-4-ylamino)methylene)-3-chlorobenzamide] | – | >10 µM | >30 µM | – | – | – | > 10 µM |
| O=C(/N=C(/NCCn1ccnc1)Nc1ccc(-c2ccccc2)cc1)c1cccc(Cl)c1 [IV-2, (Z/E)-N-((2-(1H-imidazol-1-yl)ethylamino)(biphenyl-4-ylamino)methylene)-3-chlorobenzamide] | – | <10 µM | >10 µM | – | – | – | > 10 µM |
| O=C(/N=C(/NCCc1nc[nH]n1)Nc1ccc(-c2ccccc2)cc1)c1cccc(Cl)c1 [IV-3, (Z/E)-N-((2-(1H-1,2,4-triazol-3-yl)ethylamino)(biphenyl-4-ylamino)methylene)-3-chlorobenzamide] | – | <10 µM | <10 µM | – | – | – | > 10 µM |
| O=C(/N=C(/NCCc1cn[nH]c1)Nc1ccc(-c2ccccc2)cc1)c1cccc(Cl)c1 [IV-4, (Z/E)-N-((2-(1H-pyrazol-4-yl)ethylamino)(biphenyl-4-ylamino)methylene)-3-chlorobenzamide] | – | <10 µM | >10 µM | – | – | – | < 10 µM |
| C[C@@H](Cc1c[nH]cn1)N/C(=N/C(=O)c1cccc(Cl)c1)Nc1ccc(-c2ccccc2)cc1 [IV-5, (S,Z/E)-N-((1-(1H-imidazol-4-yl)propan-2-ylamino)(biphenyl-4-ylamino)methylene)-3-chlorobenzamide] | – | <10 µM | <10 µM | – | – | – | < 10 µM |
| C[C@H](Cc1c[nH]cn1)N/C(=N/C(=O)c1cccc(Cl)c1)Nc1ccc(-c2ccccc2)cc1 [IV-6, (R,Z/E)-N-((1-(1H-imidazol-4-yl)propan-2-ylamino)(biphenyl-4-ylamino)methylene)-3-chlorobenzamide] | – | <10 µM | <10 µM | – | – | – | < 10 µM |
| O=C(/N=C(/NCCN1CCNC1=O)Nc1ccc(-c2ccccc2)cc1)c1cccc(Cl)c1 [IV-7, (Z/E)-N-((biphenyl-4-ylamino)(2-(2-oxoimidazolidin-1-yl)ethylamino)methylene)-3-chlorobenzamide] | – | >20 µM | >30 µM | – | – | – | > 30 µM |
| O=C(/N=C(\Nc1ccc(-c2ccccc2)cc1)Nc1ccc2[nH]ccc2c1)c1cccc(Cl)c1 [IV-8, (Z/E)-N-((1H-indol-5-ylamino)(biphenyl-4-ylamino)methylene)-3-chlorobenzamide] | – | >10 µM | >30 µM | – | – | – | < 10 µM |
| O=C(/N=C(/NCc1cccc2[nH]ccc12)Nc1ccc(-c2ccccc2)cc1)c1cccc(Cl)c1 [IV-9] | – | >20 µM | >30 µM | – | – | – | > 30 µM |
| Cc1ccc(C(=O)N=C(NCCc2c[nH]cn2)Nc2cccc(-c3ccccc3)c2)cc1 [VI-1, (Z/E)-N-((2-(1H-imidazol-4-yl)ethylamino)(biphenyl-3-ylamino)methylene)-4-methylbenzamide] | > 10 µM | <10 µM | >10 µM | – | – | – | – |
| Cc1cccc(C(=O)N=C(NCCc2c[nH]cn2)Nc2cccc(-c3ccccc3)c2)c1 [VI-2, (Z/E)-N-((2-(1H-imidazol-4-yl)ethylamino)(biphenyl-3-ylamino)methylene)-3-methylbenzamide] | > 10 µM | <10 µM | >10 µM | – | – | – | – |
| O=C(N=C(NCCc1c[nH]cn1)Nc1cccc(-c2ccccc2)c1)c1cccc(C(F)(F)F)c1 [VI-3, (Z/E)-N-((2-(1H-imidazol-4-yl)ethylamino)(biphenyl-3-ylamino)methylene)-3-(trifluoromethyl)benzamide] | < 10 µM | <10 µM | >10 µM | – | – | – | – |
